The values that follow come from patent US20120225909A1, “INDAZOLE ANALOG” (priority 2009, published 2012).

As usually defined, the EC50 is the concentration that produces a half-maximal response. Read a high EC50 as lower potency in that assay.

Data set [1] addresses T1, human β3-adrenergic receptor (Homo sapiens, UniProt P13945).
T1 construct: A full-length human β3 gene is obtained from a human genomic library (made by Clontech) using this as the probe; expressed in transfected cells; host or cells: CHO (Chinese hamster ovary) cells, pcDNA3
The experiment in a line: Test Case 1-B: human β3-adrenergic receptor agonist activity (cAMP-Screen, 96-well). It is filed as cell-based. The following applies: for Emax: 0.5 h, read-out: β3 receptor I.A.; for EC50: Test Case 1-B, CHO cells, cAMP. In short, it runs like this: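 CHO cells stably transfected with full-length human β3 gene, serum-starved 15 min, then exposed to serially diluted compound in Ham's F-12 with 100 mmol/L HEPES and 1 mmol/L IBMX (diluent concentrations) for 30 min. Cells lysed 30 min at 37 °C; cAMP quantified by cAMP-Screen immunoassay.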

Data set [2] has as its target T2, human β1-adrenergic receptor (Homo sapiens, UniProt P08588).
T2 construct: expressed in transfected cells; host or cells: CHO (Chinese hamster ovary) cells, pcDNA3
The data set is described as follows: Test Case 2-B: human β1-adrenergic receptor agonist activity. The format is cell-based. The following applies: read-out: β1 receptor I.A. On the procedure:
(§1) Measurement of Human β1-Adrenergic Receptor Agonist Activity
The human β1-adrenergic receptor agonist activity is measured by the same method as in Test Case 1-B using CHO (Chinese hamster ovary) cells transfected by a human β1 gene inserted in pcDNA3 (Invitrogen).

Data set [3] has as its target T3, human β2-adrenergic receptor (Homo sapiens, UniProt P07550).
T3 construct: expressed in transfected cells; host or cells: CHO (Chinese hamster ovary) cells, pcDNA3
The data set is described as follows: Test Case 3-B: human β2-adrenergic receptor agonist activity. It is filed as cell-based. The following applies: read-out: β2 receptor I.A. On the procedure: (§2) Measurement of Human β2-Adrenergic Receptor Agonist Activity
The human β2-adrenergic receptor agonist activity is measured by the same method as in Test Case 1-B using CHO (Chinese hamster ovary) cells transfected by a human β2 gene inserted in pcDNA3 (Invitrogen).

A further data set has as its system Male C57BL/6 Cr mice. The experiment in a line: Test Case 10: mouse piloerection test. The following applies: 10 mg/kg i.v. The format is in vivo. On the procedure:
Male C57BL/6 Cr mice (Japan SLC) are used. The dissolved compound is administered rapidly via a caudal vein. The animal is placed on the observation stand 5, 15, 30, and 60 minutes after administration, and the state of piloerection is observed. The state of piloerection is evaluated by the following 7-level scoring system according to the examples by the method of Irwin (Psychopharmacologia 1968, 13; 222-257).
Scoring system: “Score 0”: No piloerection at all; “Score 1”: Slight piloerection (piloerection on part of the body such as the back or neck); “Score 2”: Moderate piloerection (piloerection over the entire body); “Score 3”: Marked piloerection (piloerection over the entire body, conspicuous to the extent that the skin can be seen).
“Score 0.5” is between “Score 0” and “Score 1” “Score 1.5” is between […]. “Score 2.5” is between “Score 2” and “Score 3.”

The target of data set [4] is T4, human α1A-adrenergic receptor (Homo sapiens, UniProt P35348).
T4 sequence (P35348 1-466): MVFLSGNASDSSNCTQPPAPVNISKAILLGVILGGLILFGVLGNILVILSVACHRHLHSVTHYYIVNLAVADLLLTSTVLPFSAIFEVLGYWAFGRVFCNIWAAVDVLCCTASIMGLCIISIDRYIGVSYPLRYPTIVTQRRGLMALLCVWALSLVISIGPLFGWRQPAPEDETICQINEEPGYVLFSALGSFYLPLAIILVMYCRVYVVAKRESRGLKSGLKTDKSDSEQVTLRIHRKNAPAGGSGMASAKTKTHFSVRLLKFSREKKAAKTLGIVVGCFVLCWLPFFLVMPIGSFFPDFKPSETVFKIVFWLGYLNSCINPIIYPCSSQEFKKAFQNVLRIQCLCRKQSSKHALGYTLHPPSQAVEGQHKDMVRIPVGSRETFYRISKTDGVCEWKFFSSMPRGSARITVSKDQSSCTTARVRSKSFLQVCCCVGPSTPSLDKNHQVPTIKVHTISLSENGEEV
The experiment in a line: Test Case 4-A: human α1A-adrenergic receptor agonist activity (HEK293, Ca flux, Fura-2). It is filed as cell-based. On the set-up: expressed in transfected cells; host or cells: HEK293 cells, pcDNA3.1. The following applies: HEK293; read-out: α1A receptor I.A. The essentials: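 Fura-2AM-loaded HEK293 cells transfected with human α1A were preincubated for 180 s. Compound (sample plate 10^−5 to 10^−12 M) was added after ~30 s of 340/380 nm excitation ratio reading (500 nm emission, 2-s intervals), followed by 270 s more reading. Ca flux is the peak height: maximum ratio after addition minus the pre-addition ratio.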

For data set [5], the target named is T2, human β1-adrenergic receptor. The data set is described as follows: Test Case 2-C: human β1-adrenergic receptor agonist activity (Cerep cellular functional GPCR, beta 1). It is filed as cell-based. The following applies: concentration 10 μM, isoproterenol = 100%.
Excerpt: as §1

The target of data set [6] is T3, human β2-adrenergic receptor. The data set is described as follows: Test Case 3-C: human β2-adrenergic receptor agonist activity (Cerep cellular functional GPCR, beta 2). It is filed as cell-based. The following applies: concentration 10 μM, isoproterenol = 100%.
Excerpt: as §2

For data set [7], the target named is T4, human α1A-adrenergic receptor. The experiment in a line: Test Case 4-B: human α1A-adrenergic receptor agonist activity (Cerep cellular functional GPCR, alpha 1A). On the set-up: expressed in transfected cells. The following applies: concentration 10 μM; for α1 receptor % of Control Agonist Response, Control; Epinephrine: epinephrine = 100%; for α1 receptor % of Control Agonist Response, Control; Norepinephrine: norepinephrine = 100%. The format is cell-based. From the text: Measurement of Human α1A-Adrenergic Receptor Agonist Activity
The human α1A-adrenergic receptor agonist activity] can be measured by […] Functional GPCR·Gs, alpha 1A (Ref. 722-36a) listed on p. 52 of the Cerep 2008 CATALOG IN VITRO PHARMACOLOGY & ADME-TOX.

T2 sequence (P08588 whole entry): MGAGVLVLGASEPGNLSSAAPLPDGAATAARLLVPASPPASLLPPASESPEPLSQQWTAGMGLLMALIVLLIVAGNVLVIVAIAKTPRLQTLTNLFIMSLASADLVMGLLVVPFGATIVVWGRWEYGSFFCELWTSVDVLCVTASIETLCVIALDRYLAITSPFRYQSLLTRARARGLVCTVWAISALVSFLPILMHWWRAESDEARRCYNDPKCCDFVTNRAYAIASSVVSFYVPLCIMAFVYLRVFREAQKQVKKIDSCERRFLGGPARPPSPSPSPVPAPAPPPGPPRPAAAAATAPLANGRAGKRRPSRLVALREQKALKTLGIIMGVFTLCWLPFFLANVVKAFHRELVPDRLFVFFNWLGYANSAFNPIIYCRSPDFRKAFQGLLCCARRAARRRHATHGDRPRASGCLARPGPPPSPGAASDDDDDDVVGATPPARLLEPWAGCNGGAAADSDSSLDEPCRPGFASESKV
T1 sequence (P13945 whole entry): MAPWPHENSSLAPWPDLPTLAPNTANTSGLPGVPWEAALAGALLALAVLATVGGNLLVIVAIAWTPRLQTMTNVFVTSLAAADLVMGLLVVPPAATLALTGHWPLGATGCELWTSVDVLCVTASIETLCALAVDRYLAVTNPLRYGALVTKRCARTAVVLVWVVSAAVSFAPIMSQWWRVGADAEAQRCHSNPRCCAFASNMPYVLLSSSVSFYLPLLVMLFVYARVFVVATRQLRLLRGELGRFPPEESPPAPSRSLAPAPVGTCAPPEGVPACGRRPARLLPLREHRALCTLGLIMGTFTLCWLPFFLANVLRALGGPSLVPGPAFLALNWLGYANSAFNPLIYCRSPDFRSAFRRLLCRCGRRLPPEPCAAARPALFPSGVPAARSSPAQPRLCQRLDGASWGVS
T3 sequence (P07550 whole entry): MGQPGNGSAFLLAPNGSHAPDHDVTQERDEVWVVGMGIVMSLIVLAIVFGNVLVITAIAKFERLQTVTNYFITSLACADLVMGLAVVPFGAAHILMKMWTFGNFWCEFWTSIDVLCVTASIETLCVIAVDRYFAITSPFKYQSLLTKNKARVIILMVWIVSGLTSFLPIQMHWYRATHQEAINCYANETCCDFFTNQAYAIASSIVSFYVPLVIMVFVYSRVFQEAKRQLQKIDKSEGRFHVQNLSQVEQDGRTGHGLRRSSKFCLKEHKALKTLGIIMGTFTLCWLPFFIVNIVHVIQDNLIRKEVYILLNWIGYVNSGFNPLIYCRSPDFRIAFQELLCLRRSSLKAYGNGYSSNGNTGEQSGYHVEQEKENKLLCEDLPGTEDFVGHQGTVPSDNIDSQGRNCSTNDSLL

Turning to `COc1n[nH]c2cc(OCCNC[C@H](O)c3cccc(NS(=O)(=O)c4cc(N)ccc4F)c3)ccc12` [ex6, (R)-5-amino-2-fluoro-N-(3-(1-hydroxy-2-(2-(3-methoxyindazol-6-yloxy)ethylamino)ethyl)phenyl)benzenesulfonamide], the Emax in data set [1] was found to be 84%; in data set [2] it was 10%; in data set [3], 7%; in data set [4], 0%. In data set [1], this compound had an EC50 of 0.0007 µM. The “number of experimental animals matching Score 0 (no piloerection)” value came to 4 in the data set on Male C57BL/6 Cr mice (n=4, observation time 5 min); 4 in the data set with Male C57BL/6 Cr mice (n=4, observation time 15 min); 4 in the data set with Male C57BL/6 Cr mice (n=4, observation time 30 min); 4 in the data set on Male C57BL/6 Cr mice (n=4, observation time 60 min).

With `Cc1n[nH]c2cc(OCCNC[C@H](O)c3cccc(NS(=O)(=O)c4ccc(Cl)c(N)c4)c3)ccc12` [ex7, (R)-3-amino-4-chloro-N-(3-(1-hydroxy-2-(2-(3-methylindazol-6-yloxy)ethylamino)ethyl)phenyl)benzenesulfonamide], the “β1 receptor % of Control Agonist Response” value (“β1 receptor %” for short) in data set [5] is given as 15%. Further, the “β2 receptor % of Control Agonist Response” value (from here on “β2 receptor %”) in data set [6] is recorded as 3.7%. Further, in data set [7], the “α1 receptor % of Control Agonist Response, Control; Epinephrine” value (from here on “α1 receptor % … Control; Epinephrine”) is 25% and the “α1 receptor % of Control Agonist Response, Control; Norepinephrine” value (shortened to “α1 receptor % … Norepinephrine”) came to 21%.

For `COc1n[nH]c2cc(OCCNC[C@H](O)c3cccc(NS(=O)(=O)c4cn[nH]c4)c3)ccc12` [ex23, (R)-N-( ? -(1-hydroxy-2-(2-(3-methoxyindazol-6-yloxy)ethylamino)ethyl)phenyl)pyrazole-4-sulfonamide], the “β1 receptor %” value in data set [5] worked out at 2.1%. Moreover, the “β2 receptor %” value in data set [6] is given as 0.5%. Also, in data set [7], the “α1 receptor % … Control; Epinephrine” value is reported as 32% and the “α1 receptor % … Norepinephrine” value was 27%.

Take `Cc1n[nH]c2cc(OCCNC[C@H](O)c3cccc(NS(=O)(=O)c4ccc(F)c(N)c4)c3)ccc12` [ex58, (R)-3-amino-4-fluoro-N-(3-(1-hydroxy-2-(2-(3-methylindazol-6-yloxy)ethylamino)ethyl)phenyl) benzenesulfonamide]: the “β1 receptor %” value in data set [5] is given as 18%. Moreover, the “β2 receptor %” value in data set [6] is given as 1.8%. In addition, in data set [7], the “α1 receptor % … Control; Epinephrine” value is recorded as 0.6% and the “α1 receptor % … Norepinephrine” value was 0.5%.

On to `CCc1n[nH]c2cc(OCCNC[C@H](O)c3cccc(NS(=O)(=O)C4CC4)c3)ccc12` [ex124, (R)-N-(3-(2-(2-(3-ethylindazol-6-yloxy)ethylamino)-1-hydroxyethyl)phenyl)-cyclopropanesul-fonamide], for which the Emax in data set [1] is 52%; in data set [2], -6%; in data set [3] it was -1%; in data set [4], 0%. The compound also had a 50% effective concentration (EC50) in data set [1] of 0.013 µM. The “number of experimental animals matching Score 0 (no piloerection)” value in the data set on Male C57BL/6 Cr mice (n=4, observation time 5 min) is reported as 2; in the data set with Male C57BL/6 Cr mice (n=4, observation time 30 min), 2; in the data set on Male C57BL/6 Cr mice (n=4, observation time 60 min) it was 2. Further, the “number of experimental animals matching Score 0.5” value with Male C57BL/6 Cr mice (n=4, observation time 5 min) stood at 1; in the data set with Male C57BL/6 Cr mice (n=4, observation time 15 min), 3; with Male C57BL/6 Cr mice (n=4, observation time 30 min), 2; in the data set on Male C57BL/6 Cr mice (n=4, observation time 60 min) it was 2. Moreover, the “number of experimental animals matching Score 1 (slight piloerection)” value in the data set on Male C57BL/6 Cr mice (n=4, observation time 5 min) was 1; in the data set on Male C57BL/6 Cr mice (n=4, observation time 15 min), 1.

With `Cc1n[nH]c2cc(OCCNC[C@H](O)c3cccc(NS(=O)(=O)c4ccccc4O)c3)ccc12` [ex241, (R)-2-hydroxy-N-(3-(1-hydroxy-2-(2-(3-methylindazol-6-yloxy)ethylamino)ethyl)phenyl)benzenesulfonamide], the Emax in data set [1] was 94%; in data set [2], 9%; in data set [3] it was 8%; in data set [4], 0%. Also, in data set [1], the response was half-maximal at 0.043 µM (EC50).
